We go through two molecules from patent publication US7811352B2, “Fertilizer compositions and methods of using” (priority 2005, dated 2010).

One may read the solubility as the dissolved amount per volume that the medium holds.

Data set [1] concerns Pennlinks creeping bentgrass for greens. Put plainly: Turfgrass quality rating, greens creeping bentgrass (Example 16). It is filed as in vivo. The conditions noted are these: scale of 1-9. From the text:
In this Example, the effect of a fertilizer comprising lysine on cool season greens quality turfgrass growth was examined. The effects of lysine (HCl) and LIQUID LYSINE on a common type of golf course greens quality turfgrass (Pennlinks creeping bentgrass for greens, mown at 0.1875 in height of cut) were compared with those of urea, Milorganite and a blended fertilizer (a blend of methylene urea and urea in an approximately 1:1 ratio).
Fifteen fertilizer treatments comprising three concentrations of each fertilizer composition (Milorganite (N—P—K, 6-2-0), urea (N—P—K, 46-0-0), a blended fertilizer, LIQUID LYSINE N—P—K, 10-2-1), and lysine (HCl) (N—P—K, 15-2-1)) were prepared and applied to 3 replications of well established Pennlinks creeping bentgrass mown to 0.1875 in height cut. The urea, lysine (HCl), and LIQUID LYSINE were dissolved/suspended in 1.5 gal water prior to application. Each fertilizer treatment was applied in concentrations of 0.125 lb N/1000 ft^2/week, 0.250 lb N/1000 ft^2/week and 0.750 lb N/1000 ft^2/week. The urea, LIQUID LYSINE and lysine (HCl) were applied as foliar liquids, while Milorganite and blended fertilizer were applied as granular fertilizers. Plot size was 4 ft×8 ft laid out in a replicated complete block design. Plots were mowed at 0.1875 inches height before fertilizer application and mowed five times per week to 0.1875 inch height. Grass clippings were removed from the plots after each mowing. Irrigation (0.15 inch) was applied following application and daily thereafter. Plots were rated for turfgrass quality (scale of 1-9 where 9=dark green turf, 1=dead/brown turf, and 6=minimally acceptable turf) and phytotoxic injury (scale of 0-9 where 9=significant foliar injury and 2=minimally objectionable foliar injury) throughout the study period. Quality was measured prior to application (day 0) and day 37, day 70 and day 95 after application. Injury was measured on day 37, day 70 and day 95 after application. Ai) additional set of turfgrass plots were fertilized with three treatments of a soy concentrate fertilizer with the same application rates and methods. The quality and phytotoxic injury of the soy concentrate fertilizer plots were measured on day 95. All data was subject to statistical analysis and significant means were determined.

A short description of data set [2]: Solubility of L-lysine (HCl) in water. It counts as physicochemical. The conditions noted are these: at 25° C., read-out: solubility in H2O.
In another data set the test system is Bermuda grass. The data set can be described thus: Phytotoxicity rating, Bermuda grass fairway (Example 10). It counts as in vivo. The conditions noted are these: scale 0-5, 5=worst. From the text: In this Example, the effect of a fertilizer comprising lysine on warm season turfgrass growth was examined. The effects of lysine (HCl) and LIQUID LYSINE on a common type of golf course fairway quality turfgrass (Bermuda grass) were compared with those of urea and Milorganite.
Fifteen fertilizer treatments comprising three concentrations of each fertilizer composition (Milorganite (N—P—K, 6-2-0), urea (N—P—K, 46-0-0), LIQUID LYSINE (N—P—K, 10-2-1), and both granular and aqueous lysine (HCl) (N—P—K, 15-2-1)) were prepared and applied to 4 replications of Bermuda grass. The aqueous lysine (HCl) was dissolved in water prior to application. Each fertilizer treatment was applied in concentrations of 0.5 lb N/1000 ft^2/month, 1.0 lb N/1000 ft^2/month and 3.0 lb N/1000 ft^2/month. The urea, LIQUID LYSINE and aqueous lysine (HCl) were applied as foliar liquids, while Milorganite and granular lysine (HCl) were applied as granular fertilizers Plot size was 1 m×2 m set up as a randomized complete block. Plots were mowed at 0.5 inches before fertilizer application. Irrigation (0.15 inch) was applied following application. Plots were rated for turfgrass quality and color (scale of 1-10 where 10=dark green turf, 1=dead/brown turf, and 6=minimally acceptable turf) and phytotoxicity (scale of 0-5, where 5=worst, and 2=minimally objectionable) throughout the study period. Quality, color, and phytotoxicity were measured on 2 days before application (day −2) and day 2, day 5, day 15 and day 21 after application. All data was subject to statistical analysis and significant means were determined. Average turfgrass quality ratings for the treatments are presented in Table 9 and the quality results for application rates of 1.0 lb N/1000 ft^2/month are graphically presented in FIG. 4.

For data set [3], the system named is fairway height, creeping bentgrass. Put plainly: Injury rating of fairway height creeping bentgrass after fertilization (Example 6). It counts as in vivo. The conditions noted are these: about two weeks after application. Here is the method:
In this Example, the efficacy of fertilizers on fairway height, creeping bentgrass was examined. Fertilizer compositions according to several embodiments of the present disclosure were prepared and compared to the commercial fertilizer products, urea 46-0-0 (granular) fertilizer, Lebanon fertilizer 21-0-12 (granular, commercially available from Lebanon Seaboard Corporation, Lebanon, Pa.) and Milorganite 6-2-0 (granular, commercially available from Milorganite, Milwaukee, Wis.). The fertilizer compositions were applied to turf prior to winter dormancy at a rate equivalent to supplying about 1.0 pounds of nitrogen (N) per 1000 square feet. Each of the fertilizer compositions were applied at substantially equal rates of lbs of nitrogen (N) per 1000 square feet. Table 3 illustrates the response of fairway height, creeping bentgrass to fertilization using various exemplary fertilizers of the present invention, taken about two weeks after application of the fertilizer. The letters in the Color and Injury columns correspond to Duncan's Multiple Range Test. Numbers (means) in a column followed by the same letter are not statistically different at P=0.05.

[4] abbreviates: Weekly Rate 0.125 lbs N/1000 ft^2, Day 0.
The mark [5] stands for this setting: Weekly Rate 0.125 lbs N/1000 ft^2, Day 37.
[6] abbreviates: Weekly Rate 0.125 lbs N/1000 ft^2, Day 70.
Setting [7] is: Weekly Rate 0.125 lbs N/1000 ft^2, Day 95.
[8] abbreviates: Weekly Rate 0.25 lbs N/1000 ft^2, Day 0.
Setting [9] is: Weekly Rate 0.25 lbs N/1000 ft^2, Day 37.
[10] abbreviates: Weekly Rate 0.25 lbs N/1000 ft^2, Day 70.
Setting [11] is: Weekly Rate 0.25 lbs N/1000 ft^2, Day 95.
[12] abbreviates: Weekly Rate 0.75 lbs N/1000 ft^2, Day 0.
[13] abbreviates: Weekly Rate 0.75 lbs N/1000 ft^2, Day 37.
Setting [14] is: Weekly Rate 0.75 lbs N/1000 ft^2, Day 70.
[15] abbreviates: Weekly Rate 0.75 lbs N/1000 ft^2, Day 95.

Marks after values point to notes of the source that are not given here.

For `Cl.NCCCC[C@H](N)C(=O)O` [Lys (HCl) 15% N, L-lysine monohydrochloride], the “Quality Rating - Greens Bentgrass” value was 4.7cd in data set [1] (setting [4]); 5.0de in data set [1] (setting [5]); 6.0bc in data set [1] (setting [6]); 6.0ab in data set [1] (setting [7]); 4.7cd in data set [1] (setting [8]); 6.0bcd in data set [1] (setting [9]). Further, the “Quality Rating - Greens Bentgrass” value in data set [1] (setting [10]) is 6.0bc; in data set [1] (setting [11]) it was 6.3ab; in data set [1] (setting [12]) it was 6.0a; in data set [1] (setting [13]), 7.0ab; in data set [1] (setting [14]), 7.0a; in data set [1] (setting [15]), 7.0a. For the same molecule, the solubility in data set [2] lay in the range of 500 to 600 mg/mL.

`NC(N)=O` [Urea, urea, reference compound]: the “Phytotoxicity - Bermuda Grass” value with Bermuda grass (Monthly Rate 0.5 lbs N/1000 ft^2, Day 2) amounted to 0.0b; in the data set on Bermuda grass (Monthly Rate 0.5 lbs N/1000 ft^2, Day 5), 0; in the data set with Bermuda grass (Monthly Rate 0.5 lbs N/1000 ft^2, Day 15) it was 0; in the data set with Bermuda grass (Monthly Rate 0.5 lbs N/1000 ft^2, Day 21) it was 0; in the data set with Bermuda grass (Monthly Rate 0.5 lbs N/1000 ft^2, Day −2 (before application)), 0; in the data set on Bermuda grass (Monthly Rate 1.0 lbs N/1000 ft^2, Day 2) it was 0.0b. Moreover, the “Phytotoxicity - Bermuda Grass” value in the data set with Bermuda grass (Monthly Rate 1.0 lbs N/1000 ft^2, Day 5) is reported as 0; with Bermuda grass (Monthly Rate 1.0 lbs N/1000 ft^2, Day 15) it was 0; in the data set with Bermuda grass (Monthly Rate 1.0 lbs N/1000 ft^2, Day 21) it was 0; with Bermuda grass (Monthly Rate 1.0 lbs N/1000 ft^2, Day −2 (before application)), 0; with Bermuda grass (Monthly Rate 3.0 lbs N/1000 ft^2, Day 2), 0.0b; in the data set with Bermuda grass (Monthly Rate 3.0 lbs N/1000 ft^2, Day 5), 0. The “Phytotoxicity - Bermuda Grass” value in the data set on Bermuda grass (Monthly Rate 3.0 lbs N/1000 ft^2, Day 15) is reported as 0; in the data set with Bermuda grass (Monthly Rate 3.0 lbs N/1000 ft^2, Day 21), 0; in the data set with Bermuda grass (Monthly Rate 3.0 lbs N/1000 ft^2, Day −2 (before application)), 0. Also, the “Injury 1-9 (9 = no injury)” value in data set [3] (1.09 Lbs. product/1000 square feet) is listed as 8.7^a,b; in data set [3] (2.17 Lbs. product/1000 square feet), 7.7^a,b; in data set [3] (6.51 Lbs. product/1000 square feet), 8.7^a,b. The “Quality Rating - Greens Bentgrass” value in data set [1] (setting [4]) is on record as 4.3de; in data set [1] (setting [5]), 4.7ef; in data set [1] (setting [6]) it was 5.7c; in data set [1] (setting [7]) it was 5.7b; in data set [1] (setting [8]) it was 5.0bc; in data set [1] (setting [9]) it was 6.3bc. For the same molecule, the “Quality Rating - Greens Bentgrass” value in data set [1] (setting [10]) stood at 6.0bc; in data set [1] (setting [11]), 6.0ab; in data set [1] (setting [12]), 5.3b; in data set [1] (setting [13]), 8.0a; in data set [1] (setting [14]) it was 7.0a; in data set [1] (setting [15]), 6.7ab.
